According to patent US20070020196A1, “Inhalant formulation containing sulfoalkyl ether cyclodextrin and corticosteroid prepared from a unit dose suspension” (priority 2003, published 2007):
Converted amounts (≈) assume the structure as drawn.

How the values were obtained:
[1] = Stability of budesonide R- and S-isomers with and without SBE7-β-CD (Example 13); format: physicochemical
Procedure: The inventors have also discovered that SAE-CD is capable of stabilizing the isomers of budesonide to different extents. A study to determine if SBE7-β-CD stabilized budesonide solutions and if it preferentially stabilized one isomer was conducted according to Example 13. FIG. 11 is a semi-log plot of the % of initial concentration at each time point for the samples stored at 60 ° C. Loss of budesonide was first order at each temperature.
Solutions of budesonide with and without SBE7-β-CD were prepared at two different pHs (4 and 6) and stored at 2 different temperatures (60° C. and 80° C.). Citrate buffers (50 mM) at each pH value were prepared by mixing differing portions of 50 mM citric acid and 50 mM sodium citrate (tribasic, dihydrate) solutions. To achieve a concentration of budesonide in the buffers without SBE7-β-CD sufficient for accurate measurement, the budesonide was dissolved first in 100% ethyl alcohol. An aliquot of the ethanol/budesonide solution was then added drop-wise with stirring to each buffer solution. The theoretical budesonide concentration was 100 μg/mL with a final ethanolic content of 5% in each buffer. All solution preps and procedures involving budesonide were done in a darkened room under red light. After shaking solutions for 24 hours, both buffer solutions were filtered through Millipore Millex-GV 0.22 μm syringe filters to remove any solid that had precipitated (no significant amounts observed) from the solutions. The final budesonide concentration was about 50 μg/mL. Both the pH 4 and 6 solutions were split in two, and solid SBE7-β-CD was added to one of the portions to create solutions with and without 1% w/v SBE7-β-CD at each pH. Each solution was aliquoted into individual amber vials. They were then placed in ovens at 60° C. and 80° C. Sample vials were removed from the ovens and analyzed by HPLC at 0, 96, 164, and 288 hours. The HPLC assay conditions are summarized below.

physchem = details: thermodynamic from solid
[2] = Molar ratio SAE-CD:corticosteroid at saturated solubility (phase solubility binding study); format: physicochemical
[3] = Solubility of selected steroids enhanced by cyclodextrins (phase solubility); details: thermodynamic from solid
[4] = aqueous with cosolvent or surfactant or cyclodextrin, [Steroid] solubility, (SBE)6.1 γ-CD (0.04 M)
[5] = aqueous with cosolvent or surfactant or cyclodextrin, [Steroid] solubility, Captisol (0.04 M)
[6] = water, [Steroid] Intrinsic Solubility (in H2O)
[7] = aqueous cyclodextrin solution, aqueous with cosolvent or surfactant or cyclodextrin, Solubility of steroid, (SBE)2.4 β-CD 0.04 M
[8] = aqueous cyclodextrin solution, aqueous with cosolvent or surfactant or cyclodextrin, Solubility of steroid, (SBE)5.2 γ-CD 0.1 M
[9] = aqueous cyclodextrin solution, aqueous with cosolvent or surfactant or cyclodextrin, Solubility of steroid, (SBE)6.1 γ-CD 0.04 M
[10] = aqueous cyclodextrin solution, aqueous with cosolvent or surfactant or cyclodextrin, Solubility of steroid, (SBE)6.1 γ-CD 0.08 M
[11] = aqueous cyclodextrin solution, aqueous with cosolvent or surfactant or cyclodextrin, Solubility of steroid, (SBE)6.7 β-CD 0.0465 M
[12] = aqueous cyclodextrin solution, aqueous with cosolvent or surfactant or cyclodextrin, Solubility of steroid, (SBE)6.7 β-CD 0.0950 M
[13] = aqueous cyclodextrin solution, aqueous with cosolvent or surfactant or cyclodextrin, Solubility of steroid, (SBE)7 α-CD 0.04 M
[14] = aqueous cyclodextrin solution, aqueous with cosolvent or surfactant or cyclodextrin, Solubility of steroid, (SBE)7 α-CD 0.08 M
[15] = aqueous cyclodextrin solution, aqueous with cosolvent or surfactant or cyclodextrin, Solubility of steroid, (SBE)9.7 γ-CD […]
[16] = aqueous cyclodextrin solution, aqueous with cosolvent or surfactant or cyclodextrin, Solubility of steroid, (SPE)5.4 γ-CD 0.04 M
[17] = aqueous cyclodextrin solution, aqueous with cosolvent or surfactant or cyclodextrin, Solubility of steroid, (SPE)5.4 γ-CD 0.08 M
[18] = aqueous cyclodextrin solution, aqueous with cosolvent or surfactant or cyclodextrin, Solubility of steroid, (SPE)7 β-CD 0.04 M
[19] = aqueous cyclodextrin solution, aqueous with cosolvent or surfactant or cyclodextrin, Solubility of steroid, (SPE)7 β-CD 0.08 M
[20] = aqueous cyclodextrin solution, aqueous with cosolvent or surfactant or cyclodextrin, Solubility of steroid, γ-CD 0.035 M
[21] = aqueous cyclodextrin solution, aqueous with cosolvent or surfactant or cyclodextrin, Solubility of steroid, γ-CD 0.1 M
[22] = aqueous cyclodextrin solution, aqueous with cosolvent or surfactant or cyclodextrin, [Steroid] solubility, (SBE)6.1 γ-CD (0.04 M)
[23] = aqueous cyclodextrin solution, aqueous with cosolvent or surfactant or cyclodextrin, [Steroid] solubility, Captisol (0.04 M)
[24] = water, Solubility of steroid, H2O, no CD
[25] = water, [Steroid] Intrinsic Solubility (in H2O), in H2O
[26] = aqueous cyclodextrin solution, aqueous with cosolvent or surfactant or cyclodextrin, Solubility of steroid, α-CD 0.08 M
[27] = aqueous cyclodextrin solution, aqueous with cosolvent or surfactant or cyclodextrin, Solubility of steroid, β-CD 0.015M

Row | SMILES | Approximate Molar Ratio at Saturated Solubility of Corticosteroid (SAE-CD: corticosteroid) ([2]; SAE-α-CD) | Approximate Molar Ratio at Saturated Solubility of Corticosteroid (SAE-CD: corticosteroid) ([2]; SAE-β-CD) | Approximate Molar Ratio at Saturated Solubility of Corticosteroid (SAE-CD: corticosteroid) ([2]; SAE-γ-CD) | solubility [3, 8] | solubility [3, 9] | solubility [3, 10] | solubility [3, 11] | solubility [3, 12] | solubility [3, 13] | solubility [3, 14] | solubility [3, 15] | solubility [3, 16] | solubility [3, 17] | solubility [3, 18] | solubility [3, 19] | solubility [3, 20] | solubility [3, 21] | solubility [3, 22] | solubility [3, 23] | solubility [3, 24] | further results
1 | CCC[C@@H]1O[C@@H]2C[C@H]3[C@@H]4CCC5=CC(=O)C=C[C@]5(C)[C@H]4[C@@H](O)C[C@]3(C)[C@]2(C(=O)CO)O1 (single isomer, unassigned) [R-isomer] |  |  |  |  |  |  |  |  |  |  |  |  |  |  |  |  |  |  |  |  | With/without CAPTISOL ratio of rate constants ([1]; pH 4, 60° C.): 0.547; With/without CAPTISOL ratio of rate constants ([1]; pH 4, 80° C.): 0.607; Pseudo 1st Order Rate constant ([1]; pH 4 no CAPTISOL, 60° C.): 0.00109 h⁻¹; Pseudo 1st Order Rate constant ([1]; pH 4 no CAPTISOL, 80° C.): 0.003704 h⁻¹; Pseudo 1st Order Rate constant ([1]; pH 4 w/ CAPTISOL, 60° C.): 0.000597 h⁻¹; Pseudo 1st Order Rate constant ([1]; pH 4 w/ CAPTISOL, 80° C.): 0.00225 h⁻¹; With/without CAPTISOL ratio of rate constants ([1]; pH 6, 60° C.): 0.385; With/without CAPTISOL ratio of rate constants ([1]; pH 6, 80° C.): 0.529; Pseudo 1st Order Rate constant ([1]; pH 6 no CAPTISOL, 60° C.): 0.00432 h⁻¹; Pseudo 1st Order Rate constant ([1]; pH 6 no CAPTISOL, 80° C.): 0.0138 h⁻¹; Pseudo 1st Order Rate constant ([1]; pH 6 w/ CAPTISOL, 60° C.): 0.001661 h⁻¹; Pseudo 1st Order Rate constant ([1]; pH 6 w/ CAPTISOL, 80° C.): 0.00732 h⁻¹
2 | C[C@]12C=CC(=O)C=C1CC[C@@H]1[C@@H]2C(=O)C[C@@]2(C)[C@H]1CC[C@]2(O)C(=O)CO [Prednisone] |  |  |  |  |  |  |  |  |  |  |  |  |  |  |  |  |  |  |  |  | solubility (physchem; [4]): 13100 µM (≈ 4710 µg/mL); solubility (physchem; [5]): 18300 µM (≈ 6570 µg/mL); solubility (physchem; [6]): 505 µM (≈ 181 µg/mL)
3 | CCC(=O)O[C@]1(C(=O)SCF)[C@H](C)C[C@H]2[C@@H]3C[C@H](F)C4=CC(=O)C=C[C@]4(C)[C@@]3(F)[C@@H](O)C[C@@]21C [Fluticasone propionate, fluticasone propionate] | ~501 | ~797 | ~51 | 2150 µM | 518 µM | 1210 µM | 54.1 µM | 79.9 µM | 83.7 µM | 114 µM | 1030 µM | 717 µM | 1400 µM | 10.5 µM | 21.2 µM | 735 µM | 221 µM | 518 µM | 54.1 µM | 3.9 µM | solubility [3, 7]: 17 µM; solubility ([3]; aqueous cyclodextrin solution, aqueous with cosolvent or surfactant or cyclodextrin, Solubility of steroid, (SBE)2.4 β-CD 0.08 M): 24.6 µM; solubility ([3]; aqueous cyclodextrin solution, aqueous with cosolvent or surfactant or cyclodextrin, Solubility of steroid, (SBE)5.2 γ-CD 0.04 M): 791 µM; solubility ([3]; aqueous cyclodextrin solution, aqueous with cosolvent or surfactant or cyclodextrin, Solubility of steroid, (SBE)9.7 γ-CD 0.04 M): 545 µM; solubility [3, 25]: 3.9 µM
4 | CC1(C)O[C@@H]2C[C@H]3[C@@H]4C[C@H](F)C5=CC(=O)C=C[C@]5(C)[C@H]4[C@@H](O)C[C@]3(C)[C@]2(C(=O)CO)O1 [Flunisolide] |  | ~16 | ~9 |  |  |  |  |  |  |  |  |  |  |  |  |  |  |  |  |  | solubility (physchem; [4]): 4550 µM (≈ 1980 µg/mL); solubility (physchem; [5]): 2620 µM (≈ 1140 µg/mL); solubility (physchem; [6]): 113 µM (≈ 49.1 µg/mL)
5 | C[C@@H]1C[C@H]2[C@@H]3C[C@H](F)C4=CC(=O)C=C[C@]4(C)[C@@]3(F)[C@@H](O)C[C@]2(C)[C@@]1(O)C(=O)SCF [Fluticasone, fluticasone] |  | ~32 |  | 14400 µM | 5760 µM | 9490 µM | 1260 µM | 2160 µM |  |  | 8950 µM | 7600 µM | 13900 µM | 939 µM | 1510 µM |  | 822 µM |  |  | 1.6 µM | solubility [3, 7]: 128 µM
6 | C[C@@H]1C[C@H]2[C@@H]3CCC4=CC(=O)C=C[C@]4(C)[C@@]3(Cl)[C@@H](O)C[C@]2(C)[C@@]1(OC(=O)c1ccco1)C(=O)CCl [Mometasone furoate, mometasone furoate] | ~141 | ~274 | ~101 | 939 µM | 415 µM | 929 µM | 164 µM | 311 µM | 301 µM | 355 µM | 940 µM | 287 µM | 513 µM | 72.3 µM | 108 µM | 141 µM | 658 µM | 415 µM | 164 µM | 18.2 µM | solubility [3, 26]: 2.7 µM; solubility [3, 27]: 13.6 µM; solubility [3, 25]: 18.2 µM
7 | CCC[C@H]1O[C@@H]2C[C@H]3[C@@H]4CCC5=CC(=O)C=C[C@]5(C)[C@H]4[C@@H](O)C[C@]3(C)[C@]2(C(=O)CO)O1 (single isomer, unassigned) [S-isomer] |  |  |  |  |  |  |  |  |  |  |  |  |  |  |  |  |  |  |  |  | With/without CAPTISOL ratio of rate constants ([1]; pH 4, 60° C.): 0.323; With/without CAPTISOL ratio of rate constants ([1]; pH 4, 80° C.): 0.491; Pseudo 1st Order Rate constant ([1]; pH 4 no CAPTISOL, 60° C.): 0.0037 h⁻¹; Pseudo 1st Order Rate constant ([1]; pH 4 no CAPTISOL, 80° C.): 0.00131 h⁻¹; Pseudo 1st Order Rate constant ([1]; pH 4 w/ CAPTISOL, 60° C.): 0.00012 h⁻¹; Pseudo 1st Order Rate constant ([1]; pH 4 w/ CAPTISOL, 80° C.): 0.000644 h⁻¹; With/without CAPTISOL ratio of rate constants ([1]; pH 6, 60° C.): 0.193; With/without CAPTISOL ratio of rate constants ([1]; pH 6, 80° C.): 0.384; Pseudo 1st Order Rate constant ([1]; pH 6 no CAPTISOL, 60° C.): 0.001872 h⁻¹; Pseudo 1st Order Rate constant ([1]; pH 6 no CAPTISOL, 80° C.): 0.00661 h⁻¹; Pseudo 1st Order Rate constant ([1]; pH 6 w/ CAPTISOL, 60° C.): 0.000361 h⁻¹; Pseudo 1st Order Rate constant ([1]; pH 6 w/ CAPTISOL, 80° C.): 0.00254 h⁻¹
8 | CC1(C)O[C@@H]2C[C@H]3[C@@H]4CCC5=CC(=O)C=C[C@]5(C)[C@@]4(F)[C@@H](O)C[C@]3(C)[C@]2(C(=O)CO)O1 [Triamcinolone acetonide, triamcinolone acetonide] |  | ~9 |  |  | 10600 µM | 23900 µM | 4570 µM | 10200 µM |  |  |  |  |  |  |  | 1980 µM | 1390 µM | 10600 µM | 4570 µM | 35.6 µM | solubility [3, 25]: 35.6 µM
9 | C[C@@H]1C[C@H]2[C@@H]3CCC4=CC(=O)C=C[C@]4(C)[C@@]3(Cl)[C@@H](O)C[C@]2(C)[C@@]1(O)C(=O)CCl [Mometasone, mometasone] | ~73 | ~33 |  | 8890 µM | 8410 µM | 14200 µM | 1220 µM | 2260 µM | 550 µM | 1170 µM | 8900 µM |  | 14700 µM | 1220 µM | 2230 µM | 27.1 µM | 0.9 µM |  |  |  | solubility ([3]; aqueous cyclodextrin solution, aqueous with cosolvent or surfactant or cyclodextrin, Solubility of steroid, α-CD 0.04 M): 84 µM; solubility [3, 26]: 285 µM; solubility [3, 27]: 129 µM
